According to patent publication US20250145589A1, “PYRIDINE DERIVATIVE AND USE THEREOF” (SICHUAN HUIYU PHARMACEUTICAL CO., LTD., priority 2021, published 2025):
pIC50: −log10 of the molar value. Where two headings read alike, the source gives them in different places.

Assays:
[1] = tested on: NCI-H358 cells (KRAS G12C mutant); assay: NCI-H358 cell proliferation inhibition (CellTiter-Glo); format: cell-based; settings: Homo sapiens, NCI-H358, 72 h; H358 cells (G12C mutation), 3 days, Table 6; read-out: NCI-H358 (IC50)
Method: The CellTiter-Glo®, assay was used to detect the number of viable cells, in order to evaluate the anti-proliferation efficacy of compounds. […] The compounds were serially diluted 5-fold in DMSO to obtain 8 concentrations, and then further diluted with RPMI-640 (10% FBS) cell culture medium to obtain the working solutions (5′), 20 μL of each working solution was added to the cell culture supernatant in each well, and the plate was further incubated for 3 days at 37° C. with 5% CO2. The plate was then equilibrated with CellTiter-Glo® reagent at room temperature (25° C.) for 10-30 minutes. After aspirating 50 μL of the medium, 50 μL of CellTiter-Glo® reagent was added. The cells were thoroughly mixed with the CellTiter-Glo® reagent using a microplate shaker for 2 minutes, and then incubated at room temperature for 10 minutes. The 96-well plate was placed in a multi-mode microplate reader to record the luminescence values (RLU). The inhibition rate was calculated through the following equation: [formula] Data were analyzed using GraphPad Prism for IC50 values (Note: The negative control refers to the group without inhibitor).

PI3Kδ = PI3Kδ (Homo sapiens (Human), UniProt O00329); assay: Inhibition of PI3Kδ efficacy assay (ADP-Glo kinase assay); format: biochemical; settings: read-out: PI3Kδ inhibitory activity (IC50)
Chain of PI3Kδ (O00329 whole entry): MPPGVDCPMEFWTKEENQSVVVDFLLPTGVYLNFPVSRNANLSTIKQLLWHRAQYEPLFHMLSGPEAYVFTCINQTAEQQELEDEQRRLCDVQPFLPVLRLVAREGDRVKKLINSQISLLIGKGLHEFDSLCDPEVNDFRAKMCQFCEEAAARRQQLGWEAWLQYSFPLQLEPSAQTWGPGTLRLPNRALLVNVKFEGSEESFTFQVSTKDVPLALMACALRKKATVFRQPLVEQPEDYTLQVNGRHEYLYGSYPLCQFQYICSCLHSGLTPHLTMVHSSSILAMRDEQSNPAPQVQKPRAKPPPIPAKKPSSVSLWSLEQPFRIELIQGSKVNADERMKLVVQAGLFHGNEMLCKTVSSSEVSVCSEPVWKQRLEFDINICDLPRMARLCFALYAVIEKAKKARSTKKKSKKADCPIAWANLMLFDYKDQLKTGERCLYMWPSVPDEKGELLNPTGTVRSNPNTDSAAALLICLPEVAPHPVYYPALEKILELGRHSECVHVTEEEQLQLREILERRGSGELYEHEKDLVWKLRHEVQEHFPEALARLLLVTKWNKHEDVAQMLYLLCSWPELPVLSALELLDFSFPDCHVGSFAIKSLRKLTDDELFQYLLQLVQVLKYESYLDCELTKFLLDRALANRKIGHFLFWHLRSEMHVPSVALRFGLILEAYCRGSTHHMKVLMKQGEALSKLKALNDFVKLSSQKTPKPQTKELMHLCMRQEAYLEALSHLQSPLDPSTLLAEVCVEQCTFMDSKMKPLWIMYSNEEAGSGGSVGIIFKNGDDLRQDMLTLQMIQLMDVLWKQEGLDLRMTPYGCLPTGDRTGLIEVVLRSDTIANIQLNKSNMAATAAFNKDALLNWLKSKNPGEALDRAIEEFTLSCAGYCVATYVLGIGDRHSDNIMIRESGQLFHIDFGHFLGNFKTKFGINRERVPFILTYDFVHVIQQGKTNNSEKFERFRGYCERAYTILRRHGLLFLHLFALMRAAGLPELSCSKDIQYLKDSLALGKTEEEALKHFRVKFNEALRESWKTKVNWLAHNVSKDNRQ
Chain of PI3Kδ (P27986 whole entry partner): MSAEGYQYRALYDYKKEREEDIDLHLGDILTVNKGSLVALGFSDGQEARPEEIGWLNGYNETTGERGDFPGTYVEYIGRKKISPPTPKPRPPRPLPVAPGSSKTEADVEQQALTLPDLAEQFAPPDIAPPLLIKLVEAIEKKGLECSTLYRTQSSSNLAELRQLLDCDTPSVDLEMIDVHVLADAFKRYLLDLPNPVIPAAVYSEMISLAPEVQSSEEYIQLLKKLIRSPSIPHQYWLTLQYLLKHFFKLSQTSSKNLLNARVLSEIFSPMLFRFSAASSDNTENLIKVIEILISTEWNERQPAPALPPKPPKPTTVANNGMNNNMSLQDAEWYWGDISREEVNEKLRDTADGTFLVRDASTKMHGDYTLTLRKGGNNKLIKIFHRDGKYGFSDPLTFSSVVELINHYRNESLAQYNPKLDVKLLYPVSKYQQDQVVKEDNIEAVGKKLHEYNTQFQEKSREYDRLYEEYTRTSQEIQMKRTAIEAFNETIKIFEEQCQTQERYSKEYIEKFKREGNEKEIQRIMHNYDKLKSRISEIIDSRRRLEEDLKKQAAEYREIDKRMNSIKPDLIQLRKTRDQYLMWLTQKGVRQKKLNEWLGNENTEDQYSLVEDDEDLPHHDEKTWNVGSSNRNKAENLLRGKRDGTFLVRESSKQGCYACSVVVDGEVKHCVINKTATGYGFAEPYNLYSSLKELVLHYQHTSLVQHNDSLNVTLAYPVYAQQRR
Method: Test Example 2: Inhibition of PI3Kδ Efficacy assay The ADP-Glo™ kinase assay was used to assess the inhibition of PI3Kδ with our compounds. The utilized proteins and assay reagents were obtained from the ADP-Glo™ Kinase Assay Kit (Promega). Initially, a 2 mM stock solution of the test compound (dissolved in DMSO) was serially diluted in five-fold concentrations using DMSO to obtain eight working solutions 1 (200×) Subsequently, each of the eight working solutions 1 was further diluted in a 20-fold gradient by adding 5 μL into 95 μL of ddH2O, resulting in eight working solutions 2 (10×). […] Subsequently, 2 μL of 2.5×PI and ATP solution mixture were added to each well, mixed, and incubated at RT for 60 minutes. Then, 5 μL of ADP-Glo (containing 10 mM MgCl2) reagent was added to each well, mixed, and incubated at RT for 40 minutes. Finally, 10 μL of the Kinase Detection Reagent was added to each well, mixed, and incubated at RT for 40 minutes. Luminescence values were recorded using a multi-mode microplate reader with luminescence channel settings, and the inhibitory rate was calculated using the following formula: [formula] Data were analyzed using GraphPad Prism with log(inhibitor) vs. response—Variable Slope(four parameters) fitting calculations for IC50 values.

PI3Kα = PI3Kα (Homo sapiens (Human), UniProt P42336); assay: Inhibition of PI3Kα efficacy assay (ADP-Glo kinase assay); format: biochemical; settings: read-out: PI3Kα inhibitory activity (IC50)
Chain of PI3Kα (P42336 whole entry): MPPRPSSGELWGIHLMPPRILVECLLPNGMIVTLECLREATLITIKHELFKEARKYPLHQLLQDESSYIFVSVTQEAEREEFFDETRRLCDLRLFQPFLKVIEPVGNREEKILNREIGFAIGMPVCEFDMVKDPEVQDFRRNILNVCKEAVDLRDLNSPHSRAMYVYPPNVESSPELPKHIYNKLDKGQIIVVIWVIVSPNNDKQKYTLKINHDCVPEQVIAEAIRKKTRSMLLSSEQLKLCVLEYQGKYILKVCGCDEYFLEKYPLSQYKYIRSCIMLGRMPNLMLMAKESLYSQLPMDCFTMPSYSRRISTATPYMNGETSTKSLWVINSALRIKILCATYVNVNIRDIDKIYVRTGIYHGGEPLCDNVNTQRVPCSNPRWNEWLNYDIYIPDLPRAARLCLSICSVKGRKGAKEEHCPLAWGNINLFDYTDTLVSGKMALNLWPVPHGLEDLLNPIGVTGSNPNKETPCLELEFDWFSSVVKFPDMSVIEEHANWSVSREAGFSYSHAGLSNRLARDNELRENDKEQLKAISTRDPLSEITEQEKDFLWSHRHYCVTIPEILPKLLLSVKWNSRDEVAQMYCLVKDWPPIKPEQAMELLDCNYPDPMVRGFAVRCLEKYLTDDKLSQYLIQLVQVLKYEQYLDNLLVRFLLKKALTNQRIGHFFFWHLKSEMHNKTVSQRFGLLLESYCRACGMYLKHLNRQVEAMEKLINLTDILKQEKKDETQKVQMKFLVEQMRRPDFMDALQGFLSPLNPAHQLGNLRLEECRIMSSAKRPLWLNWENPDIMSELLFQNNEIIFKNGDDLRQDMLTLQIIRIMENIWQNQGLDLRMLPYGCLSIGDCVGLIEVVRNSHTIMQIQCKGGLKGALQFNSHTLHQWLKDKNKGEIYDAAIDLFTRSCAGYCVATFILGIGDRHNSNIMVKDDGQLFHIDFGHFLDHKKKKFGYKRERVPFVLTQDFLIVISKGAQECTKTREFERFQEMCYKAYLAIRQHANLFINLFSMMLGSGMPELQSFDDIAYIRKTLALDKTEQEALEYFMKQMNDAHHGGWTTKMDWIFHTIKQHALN
Chain of PI3Kα (P27986 whole entry partner): as the sequence (P27986 whole entry partner) above
Method: Inhibition of PI3Kα Efficacy assay The ADP-Glo™ kinase assay was used to assess the inhibition of PI3Kα with our compounds. The utilized proteins and assay reagents were obtained from the ADP-Glo™ Kinase Assay Kit (Promega). Initially, a 2 mM stock solution of the test compound (dissolved in DMSO) was serially diluted in five-fold concentrations using DMSO to obtain eight working solutions 1 (200′). […] Subsequently, 2 μL of 2.5×PI and ATP solution mixture were added to each well, mixed, and incubated at RT for 60 minutes. Then, 5 μL of ADP-Glo (containing 10 mM MgCl2) reagent was added to each well, mixed, and incubated at RT for 40 minutes. Finally, 10 μL of the Kinase Detection Reagent was added to each well, mixed, and incubated at RT for 40 minutes. […] Data were analyzed using GraphPad Prism with log(inhibitor) vs. response—Variable Slope(four parameters) fitting calculations for […]. (Note: The negative control refers to the group without inhibitor, and the blank control refers to the group without enzyme.) The data were presented in Tables 1 to 4.

Structure (SMILES) | pIC50 [1] | pIC50 (PI3Kδ; Table 1) | pIC50 (PI3Kα; Table 1) | pIC50 (PI3Kδ; Table 2) | pIC50 (PI3Kα; Table 2) | pIC50 (PI3Kδ; Table 3) | pIC50 (PI3Kδ; Table 4)
C=C(F)C(=O)N1CCN(c2ncnc3ccc(-c4cnc(OC)c(NS(=O)(=O)c5ccc(F)cc5F)c4)cc23)[C@@H](C)C1 [Example 9, (S)-2,4-difluoro-N-(5-(4-(4-(2-fluoroacryloyl)-2-methylpiperazin-1-yl)quinazolin-6-yl)-2-methoxypyridin-3-yl)benzenesulfonamide] | 6.46 | 8.04 | 9.25 | – | – | – | –
COc1ncc(-c2ccc3ncnc(N4CCN(C(=O)/C=C/CF)CC4)c3c2)cc1NS(=O)(=O)c1ccc(F)cc1F [Example 16, (E)-2,4-difluoro-N-(5-(4-(4-(4-fluorobut-2-enoyl)piperazin-1-yl)quinazolin-6-yl)-2-methoxypyridin-3-yl)benzenesulfonamide] | 7.45 | 7.55 | 9.59 | – | – | – | –
C=CC(=O)N1CC2(CCN(c3ncnc4ccc(-c5cnc(OC)c(NS(=O)(=O)c6ccc(F)cc6F)c5)cc34)CC2)C1 [Example 18, N-(5-(4-(2-acryloyl-2,7-diazaspiro[3.5]nonan-7-yl)quinazolin-6-yl)-2-methoxypyridin-3-yl)-2,4-difluorobenzenesulfonamide] | 7.22 | 7.90 | 8.92 | – | – | – | –
C=CC(=O)N1CCN(c2ncnc3ccc(-c4cnc(OC)c(NS(=O)(=O)c5c(F)cccc5F)c4)cc23)CC1 [Example 21, N-(5-(4-(4-acryloylpiperazin-1-yl)quinazolin-6-yl)-2-methoxypyridin-3-yl)-2,6-difluorobenzenesulfonamide] | 7.57 | 7.24 | 8.24 | – | – | – | –
C=CC(=O)N1CCN(c2ncnc3ccc(-c4cnc(OC)c(NS(=O)(=O)c5ccccc5)c4)cc23)CC1 [Example 24, N-(5 (4-(4-acryloylpiperazin-1-yl)quinazolin-6-yl)-2-methoxypyridin-3-yl)benzenesulfonamide] | 6.91 | 8.20 | 8.54 | – | – | – | –
C=CC(=O)N1CCN(c2ncnc3ccc(-c4cncc(NS(=O)(=O)c5ccc(F)cc5F)c4)cc23)CC1 [Example 27, N-(5-(4-(4-acryloylpiperazin-1-yl)quinazolin-6-yl)pyridin-3-yl)-2,4-difluorobenzenesulfonamide] | – | 7.56 | 8.74 | – | – | – | –
CC(=O)/C=C/C(=O)N1CCN(c2ncnc3ccc(-c4cncc(NS(=O)(=O)c5ccc(F)cc5F)c4)cc23)CC1 [Example 28, (E)-2,4-difluoro-N-(5-(4-(4-(4-oxopent-2-enoyl)piperazin-1-yl)quinazolin-6-yl)pyridin-3-yl)benzenesulfonamide] | – | 7.30 | 8.74 | – | – | – | –
C=CC(=O)N1CCN(c2ncnc3ccc(-c4cnc(OC)c(NS(=O)(=O)c5ccc(Cl)s5)c4)cc23)CC1 [Example 37, N-(5-(4-(4-acryloylpiperazin-1-yl)quinazolin-6-yl)-2-methoxypyridin-3-yl)-5-chlorothiophene-2-sulfonamide] | – | 7.70 | 8.89 | – | – | – | –
C=CC(=O)N1CCN(c2ncnc3ccc(-c4cnc(OC)c(N(C)S(=O)(=O)c5c(F)cccc5F)c4)cc23)CC1 [Example 82, N-(5-(4-(4-acryloylpiperazin-1-yl)quinazolin-6-yl)-2-methoxypyridin-3-yl)-2,6-difluoro-N-methylbenzenesulfonamide] | – | – | – | 7.12 | 7.05 | – | –
CNc1ncc(-c2ccc3ncnc(N4CCN(C(=O)/C=C/C(C)=O)CC4)c3c2)cc1NS(=O)(=O)c1ccc(F)cc1F [Example 105, (E)-2,4-difluoro-N-(2-(methylamino)-5-(4-(4-(4-oxopent-2-enoyl)piperazin-1-yl)quinazolin-6-yl)pyridin-3-yl)benzenesulfonamide] | – | – | – | 7.41 | 8.07 | – | –
C=CC(=O)N1CCN(c2ncnc3ccc(-c4cnc(OC5CCCC5)c(NS(=O)(=O)c5ccc(F)cc5F)c4)cc23)CC1 [Example 106, N-(5-(4-(4-acryloylpiperazin-1-yl)quinazolin-6-yl)-2-(cyclopentyloxy)pyridin-3-yl)-2,4-difluorobenzenesulfonamide] | – | – | – | 6.93 | 6.93 | – | –
C=C(F)C(=O)N1CCN(c2ncnc3ccc(-c4cnc(OC5CCCC5)c(NS(=O)(=O)c5ccc(F)cc5F)c4)cc23)CC1 [Example 108, N-(2-(cyclopentyloxy)-5-(4-(4-(2-fluoroacryloyl)piperazin-1-yl)quinazolin-6-yl)pyridin-3-yl)-2,4-difluorobenzenesulfonamide] | – | – | – | 6.57 | 6.79 | – | –
C=CC(=O)N1CCN(c2ncnc3ccc(-c4cnc(OC)c(NCc5ccc(F)cc5F)c4)cc23)CC1 [Example 126, 1-(4-(6-(5-((2,4-difluorobenzyl)amino)-6-methoxypyridin-3-yl)quinazolin-4-yl)piperazin-1-yl)prop-2-en-1-one] | – | – | – | 7.28 | 6.88 | – | –

Second part, the compound after the results:

pIC50 [1] | pIC50 (PI3Kδ; Table 1) | pIC50 (PI3Kα; Table 1) | pIC50 (PI3Kδ; Table 2) | pIC50 (PI3Kα; Table 2) | pIC50 (PI3Kδ; Table 3) | pIC50 (PI3Kδ; Table 4) | Structure (SMILES)
7.30 | 7.11 | 8.03 | – | – | – | – | C=CC(=O)N1CC2(CCN(c3ncnc4ccc(-c5cnc(OC)c(NS(=O)(=O)c6ccc(F)cc6F)c5)cc34)C2)C1 [Example 12, N-(5-(4-(2-acryloyl-2,6-diazaspiro[3.4]octan-6-yl)quinazolin-6-yl)-2-methoxypyridin-3-yl)-2,4-difluorobenzenesulfonamide]
6.63 | 7.21 | 8.02 | – | – | – | – | C=CC(=O)N1C[C@H](C)N(c2ncnc3ccc(-c4cnc(OC)c(NS(=O)(=O)c5ccc(F)cc5F)c4)cc23)C[C@H]1C [Example 14, N-(5-(4-((2S,5R)-4-acryloyl-2,5-dimethylpiperazin-1-yl)quinazolin-6-yl)-2-methoxypyridin-3-yl)-2,4-difluorobenzenesulfonamide]
7.66 | 7.24 | 8.33 | – | – | – | – | C=C(F)C(=O)N1CC2(CCN(c3ncnc4ccc(-c5cnc(OC)c(NS(=O)(=O)c6ccc(F)cc6F)c5)cc34)CC2)C1 [Example 19, 2,4-difluoro-N-(5-(4-(2-(2-fluoroacryloyl)-2,7-diazaspiro[3.5]nonan-7-yl)quinazolin-6-yl)-2-methoxypyridin-3-yl)benzenesulfonamide]
– | 5.74 | 6.37 | – | – | – | – | C=CC(=O)N1CCN(c2nc(N)nc3ccc(-c4cnc(OC)c(NS(=O)(=O)c5ccc(F)cc5F)c4)cc23)CC1 [Example 30, N-(5-(4-(4-acryloylpiperazin-1-yl)-2-aminoquinazolin-6-yl)-2-methoxypyridin-3-yl)-2,4-difluorobenzenesulfonamide]
– | 6.47 | 6.83 | – | – | – | – | C=CC(=O)N1CCN(c2nc(C#N)nc3ccc(-c4cnc(OC)c(NS(=O)(=O)c5ccc(F)cc5F)c4)cc23)CC1 [Example 31, N-(5-(4-(4-acryloylpiperazin-1-yl)-2-cyanoquinazolin-6-yl)-2-methoxypyridin-3-yl)-2,4-difluorobenzenesulfonamide]
– | < 5.30 | 5.65 | – | – | – | – | C=CC(=O)N1CCN(c2nc(O)nc3ccc(-c4cnc(OC)c(NS(=O)(=O)c5ccc(F)cc5F)c4)cc23)CC1 [Example 32, N-(5-(4-(4-acryloylpiperazin-1-yl)-2-hydroxyquinazolin-6-yl)-2-methoxypyridin-3-yl)-2,4-difluorobenzenesulfonamide]
– | – | – | 8.10 | – | 8.22 | 8.40 | CCOc1c([C@H](C)n2nc(C)c3c(N)ncnc32)cc(Cl)c(F)c1[C@@H]1CNC(=O)C1 [Parsaclisib, reference compound]
